Data: paper PMC6917776, “Discovery of a chemical probe for PRDM9” (Nature Communications, 2019)
Entries after “also recorded” stand apart in the source; their conditions may differ.

What was measured:
[1] = test system: 32 protein, DNA and RNA methyltransferases; test: Methyltransferase selectivity assay (whole panel); format: biochemical; settings: tested at 1 µM and 10 µM of compounds
Method: Selectivity against methyltransferases were determined as described previously. Details of the assays are described in the supplementary methods. […]
were tested at (circle) 1 µM and (triangle) 10 µM of compounds. PRDM9 was the only methyltransferase in this panel of MTs that was inhibited by MRK -740.
Effect of both compounds on PRDM7 is presented in figure 1D in the main text. Each experiment was performed at two concentrations (1 and 10 µM) of compounds and in duplicate (n=2). Source data are provided as a Source Data file .
(1 picture or pasted object on this page, not shown here)
Methyltransferase selectivity assay1
The effect of chemical probes and negative controls on the methyltransferase activities of protein, DNA and RNA methyltransferases was tested by radiometric assays using 3H-SAM. For proteins such as MLL1 trimeric, MLL3 pentameric, EZH1 (PRC2) pentameric, and EZH2 (PRC2) trimeric complexes, as well as G9a, GLP, SUV39H1, SUV39H2, SUV420H1, SUV420H2, SETD2, SETD8, SETDB1, SETD7, PRMT1, PRMT3, PRMT4, PRMT5/ MEP50 complex, PRMT6, PRMT7, PRMT8, PRMT9, PRDM9, SMYD2, SMYD3, DNMT1, and BCDIN3D the incorporation of a tritium-labeled methyl group into biotinylated substrate was monitored using scintillation proximity assay (SPA). […] The counts per minute (CPM) was measured on a TopCount plate reader. […]

spermatocytes = test: Testis microinjection, meiotic chromosome spreads (SYCP1/SYCP3 staining); format: in vivo, mouse; settings: wild type mice, 2 µl of 1 µM into both testes at P12, analysed at P15
Method: Supplementary Figure 14. Comparison of meiotic progression in the presence of MRK -740-NC and MRK-740 treated spermatocytes. Representative images of meiotic chromosome […]
(c) untreated Prdm9-/- mice are presented. At p12, mice were treated with either MRK -740-NC or MRK-740 or received no treatment. Immunofluoresence co -staining was performed with SYCP1 (green) and SYCP3 (magenta) antibodies to visualize the formation of the synaptonemal […]
mice treated with MRK-740-NC.
(1 picture or pasted object on this page, not shown here) […]
Transgenic mouse lines used in this study
Prdm9KO 2, mice have been described and were maintained on a C57BL/6 background. Mice were housed under standard conditions, were maintained on a 12- hour light/dark cycle, were fed a standard chow diet containing 6% crude fat, and were treated in compliance with the institutional guidelines for animal care and use. All experimental protocols were approved by the Animal Care and Use Committee of Biological Resource Centre at Biopolis, A*STAR, […]
Testis microinjection protocol
Seminiferous tubule microinjection was performed as previously described 3,4. At postnatal day 12 (P12) A small incision was made in the abdomen of the mouse and testes were exposed by pulling the abdominal fat pad. Testis were injected using a micro-capillary pipette injector (made in-house). […]

COc1cc(OC)cc(-c2noc(N3CCN(C)C4(CCN(c5ccccc5)CC4)C3)n2)c1 [MRK-740-NC]
Methyltransferase selectivity (in words) [1]: no effect on activity of any of 33 MTs
Meiotic phenotype of spermatocytes, pachytene stage (in words) (spermatocytes): Normal synaptonemal complex formation; also recorded: no overt meiotic defects

COc1cc(OC)cc(-c2noc(N3CCN(C)C4(CCN(c5ccnc(C)c5)CC4)C3)n2)c1 [MRK-740]
Methyltransferase selectivity (in words) [1]: selective
Meiotic phenotype of spermatocytes, pachytene stage (in words) (spermatocytes): Abnormal synaptonemal complex formation; also recorded: meiotic defects including non-homologous synapsis or failed pairing of chromosomal homologs
